Test results as given in the NIST ThermoML archive (doi:10.1021/je800251v).
Numbers after ± are expanded uncertainties.

Details: Liquid

CCOC(=O)CC [ethyl propanoate]
Details | mass density [kg/m3]
298.15 K, 100 kPa | 884.3 ± 0.8
298.15 K, 1000 kPa | 884.8 ± 0.8
298.15 K, 2000 kPa | 885.7 ± 0.9
298.15 K, 3000 kPa | 886.6 ± 0.9
298.15 K, 3340 kPa | 886.9 ± 0.9
298.15 K, 5000 kPa | 888.7 ± 0.9
298.15 K, 10000 kPa | 892.9 ± 1.1
298.15 K, 15000 kPa | 896.9 ± 1.2
298.15 K, 20000 kPa | 900.7 ± 1.3
298.15 K, 25000 kPa | 904.4 ± 1.5
298.15 K, 30000 kPa | 908.9 ± 1.5
298.15 K, 35000 kPa | 913.6 ± 1.6
303.15 K, 100 kPa | 878.5 ± 0.8
303.15 K, 1000 kPa | 879 ± 0.8
303.15 K, 2000 kPa | 880 ± 0.9
303.15 K, 3000 kPa | 880.9 ± 0.9
303.15 K, 3340 kPa | 881.2 ± 0.9
303.15 K, 5000 kPa | 883 ± 1
303.15 K, 10000 kPa | 887.4 ± 1.1
303.15 K, 15000 kPa | 891.6 ± 1.3
303.15 K, 20000 kPa | 895.6 ± 1.4
303.15 K, 25000 kPa | 899.4 ± 1.5
303.15 K, 30000 kPa | 904 ± 1.6
303.15 K, 35000 kPa | 908.9 ± 1.7
308.15 K, 100 kPa | 872.7 ± 0.8
308.15 K, 1000 kPa | 873.2 ± 0.9
308.15 K, 2000 kPa | 874.2 ± 0.9
308.15 K, 3000 kPa | 875.2 ± 0.9
308.15 K, 3340 kPa | 875.5 ± 0.9
308.15 K, 5000 kPa | 877.4 ± 1
308.15 K, 10000 kPa | 882 ± 1.1
308.15 K, 15000 kPa | 886.3 ± 1.3
308.15 K, 20000 kPa | 890.4 ± 1.4
308.15 K, 25000 kPa | 894.3 ± 1.6
308.15 K, 30000 kPa | 899.2 ± 1.7
308.15 K, 35000 kPa | 904.2 ± 1.7
313.15 K, 100 kPa | 866.8 ± 0.8
313.15 K, 1000 kPa | 867.4 ± 0.9
313.15 K, 2000 kPa | 868.4 ± 0.9
313.15 K, 3000 kPa | 869.4 ± 0.9
313.15 K, 3340 kPa | 869.8 ± 1
313.15 K, 5000 kPa | 871.7 ± 1
313.15 K, 10000 kPa | 876.5 ± 1.2
313.15 K, 15000 kPa | 880.9 ± 1.3
313.15 K, 20000 kPa | 885.1 ± 1.5
313.15 K, 25000 kPa | 889.3 ± 1.6
313.15 K, 30000 kPa | 894.4 ± 1.7
313.15 K, 35000 kPa | 899.5 ± 1.8
318.15 K, 100 kPa | 860.9 ± 0.9
318.15 K, 1000 kPa | 861.5 ± 0.9
318.15 K, 2000 kPa | 862.6 ± 0.9
318.15 K, 3000 kPa | 863.7 ± 1
318.15 K, 3340 kPa | 864.1 ± 1
318.15 K, 5000 kPa | 866.1 ± 1
318.15 K, 10000 kPa | 871 ± 1.2
318.15 K, 15000 kPa | 875.6 ± 1.4
318.15 K, 20000 kPa | 880 ± 1.5
318.15 K, 25000 kPa | 884.1 ± 1.7
318.15 K, 30000 kPa | 889.1 ± 1.8
318.15 K, 35000 kPa | 894.3 ± 1.9
323.15 K, 100 kPa | 854.9 ± 0.9
323.15 K, 1000 kPa | 856 ± 0.9
323.15 K, 2000 kPa | 857.1 ± 0.9
323.15 K, 3000 kPa | 858.1 ± 1
323.15 K, 3340 kPa | 858.4 ± 1
323.15 K, 5000 kPa | 860.3 ± 1.1
323.15 K, 10000 kPa | 865.4 ± 1.2
323.15 K, 15000 kPa | 870.2 ± 1.4
323.15 K, 20000 kPa | 874.7 ± 1.6
323.15 K, 25000 kPa | 879.1 ± 1.7
323.15 K, 30000 kPa | 884.3 ± 1.8
323.15 K, 35000 kPa | 889.7 ± 1.9
328.15 K, 100 kPa | 849.2 ± 0.9
328.15 K, 1000 kPa | 850.2 ± 0.9
328.15 K, 2000 kPa | 851.3 ± 1
328.15 K, 3000 kPa | 852.5 ± 1
328.15 K, 3340 kPa | 852.9 ± 1
328.15 K, 5000 kPa | 854.7 ± 1.1
328.15 K, 10000 kPa | 860 ± 1.3
328.15 K, 15000 kPa | 865 ± 1.4
328.15 K, 20000 kPa | 869.6 ± 1.6
328.15 K, 25000 kPa | 874 ± 1.8
328.15 K, 30000 kPa | 879.4 ± 1.9
328.15 K, 35000 kPa | 884.9 ± 2
333.15 K, 100 kPa | 843.1 ± 0.9
333.15 K, 1000 kPa | 844.2 ± 0.9
333.15 K, 2000 kPa | 845.4 ± 1
333.15 K, 3000 kPa | 846.6 ± 1
333.15 K, 3340 kPa | 847 ± 1
333.15 K, 5000 kPa | 849 ± 1.1
333.15 K, 10000 kPa | 854.6 ± 1.3
333.15 K, 15000 kPa | 859.7 ± 1.5
333.15 K, 20000 kPa | 864.5 ± 1.7
333.15 K, 25000 kPa | 869.2 ± 1.8
333.15 K, 30000 kPa | 874.8 ± 1.9
333.15 K, 35000 kPa | 880.6 ± 2.1
338.15 K, 100 kPa | 836.9 ± 0.9
338.15 K, 1000 kPa | 838.2 ± 1
338.15 K, 2000 kPa | 839.5 ± 1
338.15 K, 3000 kPa | 840.7 ± 1
338.15 K, 3340 kPa | 841.1 ± 1.1
338.15 K, 5000 kPa | 843.1 ± 1.1
338.15 K, 10000 kPa | 848.8 ± 1.3
338.15 K, 15000 kPa | 854.4 ± 1.5
338.15 K, 20000 kPa | 859.4 ± 1.7
338.15 K, 25000 kPa | 863.6 ± 1.9
338.15 K, 30000 kPa | 869.9 ± 2
338.15 K, 35000 kPa | 875.8 ± 2.1
343.15 K, 100 kPa | 831.1 ± 0.9
343.15 K, 1000 kPa | 832.2 ± 1
343.15 K, 2000 kPa | 833.5 ± 1
343.15 K, 3000 kPa | 834.8 ± 1.1
343.15 K, 3340 kPa | 835.2 ± 1.1
343.15 K, 5000 kPa | 837.4 ± 1.2
343.15 K, 10000 kPa | 843.4 ± 1.4
343.15 K, 15000 kPa | 848.9 ± 1.6
343.15 K, 20000 kPa | 854 ± 1.7
343.15 K, 25000 kPa | 859.1 ± 1.9
343.15 K, 30000 kPa | 865 ± 2.1
343.15 K, 35000 kPa | 871 ± 2.2
348.15 K, 100 kPa | 824.9 ± 0.9
348.15 K, 1000 kPa | 826 ± 1
348.15 K, 2000 kPa | 827.4 ± 1
348.15 K, 3000 kPa | 828.8 ± 1.1
348.15 K, 3340 kPa | 829.3 ± 1.1
348.15 K, 5000 kPa | 831.5 ± 1.2
348.15 K, 10000 kPa | 837.7 ± 1.4
348.15 K, 15000 kPa | 843.4 ± 1.6
348.15 K, 20000 kPa | 848.8 ± 1.8
348.15 K, 25000 kPa | 854 ± 2
348.15 K, 30000 kPa | 860.1 ± 2.1
348.15 K, 35000 kPa | 866.3 ± 2.2
353.15 K, 100 kPa | 818.7 ± 1
353.15 K, 1000 kPa | 819.9 ± 1
353.15 K, 2000 kPa | 821.3 ± 1.1
353.15 K, 3000 kPa | 822.7 ± 1.1
353.15 K, 3340 kPa | 823.2 ± 1.1
353.15 K, 5000 kPa | 825.6 ± 1.2
353.15 K, 10000 kPa | 832.1 ± 1.4
353.15 K, 15000 kPa | 838 ± 1.6
353.15 K, 20000 kPa | 843.5 ± 1.8
353.15 K, 25000 kPa | 848.9 ± 2
353.15 K, 30000 kPa | 855.3 ± 2.2
353.15 K, 35000 kPa | 861.6 ± 2.3
363.15 K, 100 kPa | 803.5 ± 1
363.15 K, 1000 kPa | 805.1 ± 1.1
363.15 K, 2000 kPa | 806.9 ± 1.1
363.15 K, 3000 kPa | 808.7 ± 1.2
363.15 K, 3340 kPa | 809.3 ± 1.2
363.15 K, 5000 kPa | 812 ± 1.3
363.15 K, 10000 kPa | 819.6 ± 1.5
363.15 K, 15000 kPa | 826.5 ± 1.7
363.15 K, 20000 kPa | 833 ± 1.9
363.15 K, 25000 kPa | 839.1 ± 2.1
363.15 K, 30000 kPa | 844.8 ± 2.3
363.15 K, 35000 kPa | 850.2 ± 2.5
373.15 K, 100 kPa | 790.9 ± 1
373.15 K, 1000 kPa | 792.6 ± 1.1
373.15 K, 2000 kPa | 794.5 ± 1.2
373.15 K, 3000 kPa | 796.4 ± 1.2
373.15 K, 3340 kPa | 797.1 ± 1.2
373.15 K, 5000 kPa | 800 ± 1.3
373.15 K, 10000 kPa | 808.2 ± 1.6
373.15 K, 15000 kPa | 815.6 ± 1.8
373.15 K, 20000 kPa | 822.5 ± 2
373.15 K, 25000 kPa | 829 ± 2.2
373.15 K, 30000 kPa | 834.9 ± 2.4
373.15 K, 35000 kPa | 840.6 ± 2.6
383.15 K, 1000 kPa | 780 ± 1.1
383.15 K, 2000 kPa | 782.1 ± 1.2
383.15 K, 3000 kPa | 784.1 ± 1.3
383.15 K, 3340 kPa | 784.8 ± 1.3
383.15 K, 5000 kPa | 787.9 ± 1.4
383.15 K, 10000 kPa | 796.6 ± 1.6
383.15 K, 15000 kPa | 804.6 ± 1.9
383.15 K, 20000 kPa | 811.9 ± 2.1
383.15 K, 25000 kPa | 818.7 ± 2.3
383.15 K, 30000 kPa | 825 ± 2.5
383.15 K, 35000 kPa | 830.9 ± 2.7
393.15 K, 1000 kPa | 766.4 ± 1.2
393.15 K, 2000 kPa | 768.7 ± 1.2
393.15 K, 3000 kPa | 770.8 ± 1.3
393.15 K, 3340 kPa | 771.5 ± 1.3
393.15 K, 5000 kPa | 775 ± 1.4
393.15 K, 10000 kPa | 784.5 ± 1.7
393.15 K, 15000 kPa | 793.1 ± 2
393.15 K, 20000 kPa | 800.8 ± 2.2
393.15 K, 25000 kPa | 808 ± 2.4
393.15 K, 30000 kPa | 814.7 ± 2.6
393.15 K, 35000 kPa | 820.9 ± 2.8
